Laboratory results from patent US20200009185A1, “METHOD FOR MAINTAINING INCREASED […] p53 LEVEL, INDUCED BY […]-BASED […] DRUG, AND APPLICATION THEREOF” (priority 2015, published 2020).

Legend:
[1] = test system: human cervical cancer cells; experiment: Tumor growth in animal model transplanted with human cervical cancer cells; format: in vivo; conditions: low concentration of cisplatin
[2] = test system: cervical cancer cell lines; experiment: Expression level of intracellular p53 over time in cervical cancer cell lines; format: cell-based
CaSki cells [3] = experiment: WST cell viability analysis (Example 1-2); format: cell-based, human; conditions: CaSki cells transformed with HPV E6/E7 siRNA, 10 μM cisplatin 24 hours, vs group not treated with cisplatin; FIG. 1B
Protocol: (§1) WST analysis was performed to confirm cell viability.
(§2) Cell counts were determined by water soluble tetrazolium salts (WST) (EZ-Cytox kit; Daeil Lab Service, Seoul, Korea). EZ-Cytox solution (50 μl) added to each well of a 12-well plate and incubated for 2 to 3 hours. Live cells were measured (485 nm) using a GENios Pro microplate reader (Tecan Trading AG, Mannedorf, Switzerland) in a 96-well plate.

Hela cells [4] = experiment: WST cell viability analysis (Example 1-2); format: cell-based, human; conditions: Hela cells transformed with HPV E6/E7 siRNA, 10 μM cisplatin 24 hours, vs group not treated with cisplatin; FIG. 1B
Protocol: as §1, §2

CaSki cells [5] = experiment: Western blot of TP53, RB, E6, E7 at time points (Example 1-4); format: cell-based, human; conditions: CaSki cells transformed with HPV E6/E7 siRNA then treated with cisplatin; FIG. 1D, 1E
Excerpt: (§3) Cell lysates were then obtained and subjected to western blotting.
(§4) In western blotting, antibodies of Santa Cruz Biotechnology ([…], Calif.) were used for TP53 [DO7], HPV 18-E6 [G7], HPV 16-E6 [C1P5], HPV 18-E7 [F7], HPV 16-E7 [ED17], E2F-1 [KH195], Cyclin-E [M20], β-Actin [C4] and antibody of BD Pharmingen was used for RB [554164], antibody of cell signaling was used for phospho-TP53 (ser-15) [9284].

Hela cells [6] = experiment: as above; format: cell-based, human; conditions: Hela cells transformed with HPV E6/E7 siRNA then treated with cisplatin; FIG. 1D, 1E
Excerpt: as §3, §4

CaSki cells [7] = experiment: Western blot of TP53 and HPV E6/E7 after HPV E6/E7 siRNA and cisplatin (Example 1-1); format: cell-based, human; conditions: CaSki cells transformed with HPV E6/E7 siRNA, 10 μM cisplatin for 24 hours; FIG. 1A
Hela cells [8] = experiment: as above; format: cell-based, human; conditions: Hela cells transformed with HPV E6/E7 siRNA, 10 μM cisplatin for 24 hours; FIG. 1A
Protocol: Cervical cancer cell and HeLa cervical cancer cell lines (HeLa; ATCC CCL-2) infected with HPV type 18 virus and SiHa cervical cancer cell lines (SiHa; ATCC HTB-35) infected with HPV type 16 virus were plated on a 6-well plate with 5×10^4 or 1×10^5 cells and cultured in RPMI 1640 or DMEM medium for 24 hours at 37° C. and 5% carbon dioxide, respectively. siRNA intracellular transfection was performed with DharmaFect (Dharmacon, Lafayette, Colo., USA) according to manufacturer's instructions.
HeLa cervical carcinoma cells infected with HPV type 18 virus were transformed by pooling with each of siRNAs of 426 and 450 sequences, or respectively. The HPV type 16 virus-infected siHa cell line was transformed by pooling siRNAs of 366, 448 and 497 sequences, or respectively.
In the Western blot, whole-cell lysate was extracted with RIPA buffer (10 mM Tris ([…]), 0.15 M NaCl, 5 mM EDTA, 1% Triton X-100, 0.5% deoxycholic acid sodium salt and 0.1% SDS). After centrifugation, the protein concentration of the supernatant was measured using a BCA protein assay kit (Thermo Fisher Scientific Inc). Protein samples were placed in sample buffer and boiled for 5 minutes for complete denaturation. The samples were then applied to 6%, 10%, or 15% polyacrylamide gels and transferred to a 0.4 μm PVDF membrane (Milipore, Bilerica). […] Finally, the expression level of the protein was detected using ECL solution. […]

CaSki cells [9] = experiment: TP53 and E2F luciferase reporter assay (Example 1-3); format: cell-based, human; conditions: CaSki cells treated with cisplatin and HPV E6/E7 siRNA; FIG. 1C
Protocol: (§5) The above luciferase reporter vector system was purchased from Clontech pathway profiling system (Mountain View, Calif., USA). Luciferase assay was performed using Dual-Luciferase Reporter Assay System (Promega) after 24 hours of transfection, and luminescence activity was measured using a GENios Pro microplate reader (Tecan Trading AG, Mannedorf, Switzerland).

Hela cells [10] = experiment: as above; format: cell-based, human; conditions: Hela cells treated with cisplatin and HPV E6/E7 siRNA; FIG. 1C
Protocol: as §5

For `N.N.[Cl][Pt][Cl]` [cisplatin, cis-diamminedichloroplatinum [II]], the “tumor growth inhibitory effect” value [1] was “no tumor growth inhibitory effect”, the “expression level of intracellular p53” value [2] was “in the form of a pulse and repeatedly increased and decreased” and the cell viability (CaSki cells [3]) was “decreased”. For the same molecule, the cell viability (Hela cells [4]) was “decreased”, the “expression level of TP53” value (CaSki cells [5]) was “increased” and the “expression level of pRB” value (CaSki cells [5]) was “increased”. For the same molecule, the “expression levels of 16-E6 and 16-E7” value (CaSki cells [5]) was “decreased”, the “expression level of TP53” value (Hela cells [6]) was “increased” and the “expression level of pRB” value (Hela cells [6]) was “increased”. The “expression levels of 18-E6 and 18-E7” value (Hela cells [6]) was “decreased”, the “amount of HPV E6/E7 protein expression” value (CaSki cells [7]) was “not observed” and the “amount of TP53 expression” value (CaSki cells [7]) was “increased”. For the same molecule, the “amount of HPV E6/E7 protein expression” value (Hela cells [8]) was “not observed”, the “amount of TP53 expression” value (Hela cells [8]) was “increased” and the “activity of E2F (luciferase reporter)” value (CaSki cells [9]) was “further decrease”. For the same molecule, the “activity of TP53 (luciferase reporter)” value (CaSki cells [9]) was “increase”, the “activity of E2F (luciferase reporter)” value (Hela cells [10]) was “further decrease” and the “activity of TP53 (luciferase reporter)” value (Hela cells [10]) was “increase”.
